The test system of experiment [1] is Brevibacterium epidermidis. In words: agar dilution method, MIC. To be noted: ATCC35514; Brevibacterium epidermidis ATCC 35514; Mueller-Hinton agar, aerobic, 18 h at 36° C.; read-out: MIC (minimum inhibitory concentration). The experiment is classed as cell-based. The protocol: (§1) Petri dishes 5.5 cm in diameter were charged with 8.7 ml freshly prepared Mueller-Hinton agar (Merck, Ref. 1.05437 or Wilkins-Chalgren agar boillon (sic), Oxoid, Ref. CM 643, supplemented with 10 g agar-agar/liter) kept liquid at 50° C., to which the various concentrations of the diluted samples were added in 3.3% (V/V)=0.3 ml. Mueller-Hinton agar that contained 3% Tween80 (Merck, Ref. 8.22 187) was used for the test germ Malassezia furfur.
(§2) 2.6 ml of the 3.3% samples were diluted with ethanol (96%; Merck, Ref. 1.00971). The further test concentrations of the particular dilution series, which were prepared in the form of geometric series, were prepared by progressive 2:1 dilution with ethanol (96%).
(§3) The concentrations indicated below relate to the pure substance and have been converted to ppm. Two agar plates were poured per test concentration and nutrient medium.
(§4) After solidification and drying (approximately 1 h at 37° C.), the test plates were inoculated in point form with, in each case, 1 μl of the test germ suspensions listed in the examples below. To check purity and identity, the bacteria (Brevibacterium epidermidis, Corynebakterium (sic) xerosis, Staphylococcus aureus; Staphylococcus epidermidis) which grow aerobically, were [lacuna] on Columbia blood agar (BioMérieux, Ref. 43049). The mould Aspergillus niger, the yeast Candida albicans and the skin fungus Trichophyton mentagrophytes were cultivated on Sabouraud agar (BioMérieux, Ref. 43555). Malassezia furfur was cultured on Sabourad-HLT agar with inhibitors (addition of Tween80: 1%; lecithin: 0.3%; histidine: 0.1%; Merck, Ref. 1.18368). Propionibacterium acnes was cultivated on Schaedler agar (BioMérieux, Ref. 43273). Further data on the test germs can be taken from Table 1.
(§5) The preparation of the test germ suspensions of the bacterial germs that grow aerobically was carried out by incubation of Mueller-Hinton broth (Merck, Ref. 1.10293) which had been inoculated with a few individual colonies of the relevant test germs, at 36° C. After a distinct turbidity had been obtained, sterile nutrient broth was added to the suspensions in such an amount that the turbidity thereof corresponded to McFarland Standard 0.5 (approx. 1.5×10^8 CFU/ml).
(§6) All test germ suspensions with the exception of Propionibacterium acnes were diluted again 1:10 with sterile broth and the germ count thereof was determined by the surface method using a Spiralometer (results: see Table 1).
(§7) The MIC (minimum inhibitory concentration) was regarded as the lowest concentration of active compound at which macroscopically there is no growth. Minimal, barely visible growth or few small individual colonies were evaluated as inhibition.
(§8) The MIC values of various (R/S)-4-methyl-4-aryl-2-pentanols were determined in accordance with the general test conditions described under 2.1. (c.f. Table 3; MIC values for (R/S[lacuna]-4-methyl-4-phenyl-2-pentanol, for (R/S)-4-methyl-4-p-tolyl-2-pentanol, (R/S)-4-methyl-4-p-cumenyl-2-pentanol and (R/S)-4-methyl-4-(4-n-butylphenyl)-2-pentanol).
Background: In agar dilution the substance is mixed into plates at graded concentrations.

For experiment [2], the system named is Corynebacterium xerosis. In words: agar dilution method, MIC. To be noted: ATCC7711; Corynebacterium xerosis ATCC 7711; Mueller-Hinton agar, aerobic, 18 h at 36° C.; read-out: MIC (minimum inhibitory concentration). The experiment is classed as cell-based. The protocol: as §1, §2, §3, §4, §5, §6, §7, §8
Experiment [3] deals with Staphylococcus epidermidis. In words: agar dilution method, MIC. To be noted: ATCC12228; Staphylococcus epidermidis ATCC 12228; Mueller-Hinton agar, aerobic, 18 h at 36° C.; read-out: MIC (minimum inhibitory concentration). Type of experiment: cell-based. As to the method:
as §1, §2, §3, §4, §5, §6, §7, §8

The test system of experiment [4] is Propionibacterium acnes. In words: agar dilution method, MIC. Type of experiment: cell-based. The note with it: for MIC: Cutibacterium acnes, ATCC11829, Propionibacterium acnes ATCC 11829, Wilkins-Chalgren agar, anaerobic, 72 h at 36° C., read-out: MIC (minimum inhibitory concentration); for activity against Propionibacterium acnes (in words): text comment on Table 3. The protocol: as §1, §2, §3, §4
(§9) For preparation of the other test germ suspensions, the test strains were cultured on the abovementioned solid nutrient medium, harvested using sterile swabs and taken up or diluted in such an amount of Mueller-Hinton broth that the turbidity of the suspensions corresponded to McFarland standard 0.5.
as §7, §8

Experiment [5] relates to Aspergillus niger. In words: agar dilution method, MIC. To be noted: for MIC: ATCC16404, Aspergillus niger ATCC 16404, Mueller-Hinton agar, aerobic, 48 h at 30° C., read-out: MIC (minimum inhibitory concentration); for effectiveness against moulds (in words): comparison among substances 2-5. Type of experiment: cell-based. The protocol: as §1, §2, §3, §4, §9, §6, §7, §8

Experiment [6] concerns Candida albicans. Put plainly: agar dilution method, MIC. The experiment is classed as cell-based. The note with it: for MIC: ATCC10231, Candida albicans ATCC 10231, Mueller-Hinton agar, aerobic, 48 h at 30° C., read-out: MIC (minimum inhibitory concentration); for effectiveness against yeasts such as Candida albicans (in words): comparison among substances 2-5. As to the method:
as §1, §2, §3, §4, §9, §6, §7, §8

Experiment [7] concerns Malassezia furfur. In words: agar dilution method, MIC. Type of experiment: cell-based. The note with it: DSM6171; Malassezia furfur DSM 6171; Mueller-Hinton agar + 3% Tween 80, aerobic, 72 h at 30° C.; read-out: MIC (minimum inhibitory concentration). As to the method: as §1, §2, §3, §4, §9, §6, §7, §8
Experiment [8] has as its system Trichophyton mentagrophytes. Put plainly: agar dilution method, MIC. The experiment is classed as cell-based. To be noted: CBS26379; Trichophyton mentagrophytes CBS 26379; Mueller-Hinton agar, aerobic, 72 h at 30° C.; read-out: MIC (minimum inhibitory concentration). As to the method: as §1, §2, §3, §4, §9, §6, §7, §8
In experiment [9] the test system is Escherichia coli. In words: agar dilution method, MIC. Type of experiment: cell-based. The note with it: read-out: MIC (minimum inhibitory concentration). The protocol: as §1, §2, §3, §7, §8
Experiment [10] relates to Pseudomonas aeruginosa. In words: agar dilution method, MIC. The experiment is classed as cell-based. The note with it: read-out: MIC (minimum inhibitory concentration). The protocol: as §1, §2, §3, §7, §8
The test system of experiment [11] is glycolysis. To be noted: known from J. Dental Res. 40,384 (1961); cariostatic; cited from earlier work.

The text below walks through data of patent US7119123B2, “Antimicrobially active 4-methyl-4-aryl-2-pentanols, their preparation and use” (Symrise GmbH & Co. KG, priority 2004, dated 2006).

`CC(O)CC(C)(C)c1ccccc1` (racemic) [Formula 2, (R,S)-4-methyl-4-phenyl-2-pentanol]: the MIC was determined as 1100 µg/mL in experiment [1]; 1100 µg/mL in experiment [2]; 1100 µg/mL in experiment [3]; 1100 µg/mL in [4]; 550 µg/mL in experiment [5]; 1100 µg/mL in experiment [6]. Besides, the MIC in experiment [7] was 69 µg/mL; in experiment [8] it was 550 µg/mL; in [9], over 1100 µg/mL; in experiment [10] it was over 1100 µg/mL. In experiment [4], the “activity against Propionibacterium acnes (in words)” value (from here on “activity”) is on record as “an activity can also be observed”. In addition, the “effectiveness against moulds (in words)” value in experiment [5] is “most effective”. The “effectiveness against yeasts such as Candida albicans (in words)” value in experiment [6] was “most effective”. For the same compound, the “glycolysis-inhibiting action (in words)” value in experiment [11] is recorded as “a certain glycolysis-inhibiting action”.
With `Cc1ccc(C(C)(C)CC(C)O)cc1` (racemic) [Formula 3, (R,S)-4-methyl-4-p-tolyl-2-pentanol], the MIC in [1] amounted to 550 µg/mL; in experiment [2], 275 µg/mL; in [3], 550 µg/mL; in experiment [4], 550 µg/mL; in experiment [5], 550 µg/mL; in [6], 1100 µg/mL. The MIC in experiment [7] was 69 µg/mL; in [8] it was 138 µg/mL; in [9], over 1100 µg/mL; in [10] it was over 1100 µg/mL. Besides, the “activity” value in experiment [4] was “an activity can also be observed”. Moreover, the “effectiveness against moulds (in words)” value in experiment [5] is on record as “most effective”. For the same compound, the “effectiveness against yeasts such as Candida albicans (in words)” value in experiment [6] is “most effective”.
As to `CC(O)CC(C)(C)c1ccc(C(C)C)cc1` (racemic) [Formula 4, (R,S)-4-methyl-4-p-cumenyl-2-pentanol], the MIC in [1] was 138 µg/mL; in [2], 69 µg/mL; in [3] it was 138 µg/mL; in experiment [4], 138 µg/mL; in experiment [5], over 1100 µg/mL; in [6], over 1100 µg/mL. Further, the MIC in experiment [7] is 550 µg/mL; in experiment [8], 69 µg/mL; in experiment [9] it was over 1100 µg/mL; in [10] it was over 1100 µg/mL.
In the case of `CCCCc1ccc(C(C)(C)CC(C)O)cc1` (racemic) [Formula 5, (R,S)-4-methyl-4-(4-n-butylphenyl)-2-pentanol], the MIC in experiment [1] was 550 µg/mL; in [2], 69 µg/mL; in experiment [3], 1100 µg/mL; in experiment [4], over 1100 µg/mL; in experiment [5] it was over 1100 µg/mL; in experiment [6], over 1100 µg/mL. For the same compound, the MIC in experiment [7] was 550 µg/mL; in experiment [8], 69 µg/mL; in [9] it was over 1100 µg/mL; in [10], over 1100 µg/mL. Also, the “activity” value in experiment [4] was “an activity can also be observed”.
